This note sets out measurements from publication PMC10343299, “S-Ethyl-Isothiocitrullin-Based Dipeptides and 1,2,4-Oxadiazole Pseudo-Dipeptides: Solid Phase Synthesis and Evaluation as NO Synthase Inhibitors” (Molecules, 2023).

The experiment addresses T1, mouse iNOS (Mus musculus, UniProt P29477).
T1 construct: Full-length recombinant rat nNOS, mouse iNOS, bovine eNOS; made in house; host or cells: Escherichia coli
T1 sequence (P29477 1-1144): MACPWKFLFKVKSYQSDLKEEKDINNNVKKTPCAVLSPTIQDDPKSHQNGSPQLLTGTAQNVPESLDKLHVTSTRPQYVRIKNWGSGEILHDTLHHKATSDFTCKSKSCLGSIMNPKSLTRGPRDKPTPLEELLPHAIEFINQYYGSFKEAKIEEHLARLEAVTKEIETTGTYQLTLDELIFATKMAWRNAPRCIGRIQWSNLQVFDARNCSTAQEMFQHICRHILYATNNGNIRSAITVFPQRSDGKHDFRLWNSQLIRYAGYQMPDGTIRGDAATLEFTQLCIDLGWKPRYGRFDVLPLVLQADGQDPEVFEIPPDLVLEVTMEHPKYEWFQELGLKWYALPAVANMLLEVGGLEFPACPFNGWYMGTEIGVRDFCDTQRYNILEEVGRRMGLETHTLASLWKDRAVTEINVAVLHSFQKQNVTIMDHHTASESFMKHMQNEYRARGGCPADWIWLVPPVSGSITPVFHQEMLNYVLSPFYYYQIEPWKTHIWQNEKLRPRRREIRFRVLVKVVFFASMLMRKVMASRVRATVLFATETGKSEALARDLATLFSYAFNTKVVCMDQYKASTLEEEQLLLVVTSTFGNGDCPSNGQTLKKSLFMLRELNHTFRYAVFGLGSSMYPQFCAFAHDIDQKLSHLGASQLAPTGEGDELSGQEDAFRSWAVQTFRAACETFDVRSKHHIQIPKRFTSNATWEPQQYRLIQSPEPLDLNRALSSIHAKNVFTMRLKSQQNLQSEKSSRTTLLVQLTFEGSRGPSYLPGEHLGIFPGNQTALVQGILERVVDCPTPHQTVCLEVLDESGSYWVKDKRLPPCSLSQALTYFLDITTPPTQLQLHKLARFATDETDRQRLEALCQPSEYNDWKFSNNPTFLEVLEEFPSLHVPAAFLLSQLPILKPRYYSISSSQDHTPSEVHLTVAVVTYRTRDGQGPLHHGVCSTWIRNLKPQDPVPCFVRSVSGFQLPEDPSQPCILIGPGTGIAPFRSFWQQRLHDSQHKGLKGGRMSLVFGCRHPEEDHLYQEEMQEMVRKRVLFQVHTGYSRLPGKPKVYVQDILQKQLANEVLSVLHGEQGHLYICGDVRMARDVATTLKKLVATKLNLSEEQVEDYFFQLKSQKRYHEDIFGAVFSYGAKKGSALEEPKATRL
Briefly: NOS inhibition, oxyhemoglobin (hemoglobin capture) test, recombinant iNOS. The experiment is classed as biochemical. The settings on record: dipeptide-like series, recombinant enzyme, 20 µM arginine, triplicate, NI = <50% inhibition at 100 μM. In short, it runs like this:
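Full-length E. coli-expressed recombinant enzyme; NO formation followed kinetically at 401 nm via oxyhemoglobin capture at 30 °C in 100 mM Hepes pH 7.5 with NADPH, BH4, FAD, FMN, DTT; arginine 20 µM (iNOS) or 10 µM (nNOS, plus calmodulin and CaCl2). Screened at 100 and 10 μM; IC50 if >50% inhibition at 100 μM.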

On to `CCSC(=N)NCCC[C@H](N)C(=O)N[C@H]1CCCN(Cc2cccc(-c3cccc(C(=O)O)c3)c2)C1` [Compound 27], for which the inhibition at 100 µM (read-out: IC50 (μM) iNOS (Mouse)) is less than 50%.

Consider `CCSC(=N)NCCC[C@H](N)C(=O)N[C@H]1CCCN(Cc2ccccc2)C1` [Compound 7], for which the IC50 was found to be 73.4 µM.

As to `CCSC(=N)NCCC[C@H](N)C(=O)N[C@H]1CCCN(Cc2ccc(Cl)c(C(F)(F)F)c2)C1` [Compound 17], the half-inhibitory concentration (IC50) was 12.9 µM.
